Target: Stimulator of interferon genes protein (Homo sapiens, UniProt Q86WV6)
Assay: Agonist activity at full length human STING expressed in HEK293T cotransfected with pISRE-luc and cGAS incubated for 24 hrs by steady-glo luciferase reporter gene assay
Assay type: cell-based

Sequence of Stimulator of interferon genes protein (Q86WV6 whole entry): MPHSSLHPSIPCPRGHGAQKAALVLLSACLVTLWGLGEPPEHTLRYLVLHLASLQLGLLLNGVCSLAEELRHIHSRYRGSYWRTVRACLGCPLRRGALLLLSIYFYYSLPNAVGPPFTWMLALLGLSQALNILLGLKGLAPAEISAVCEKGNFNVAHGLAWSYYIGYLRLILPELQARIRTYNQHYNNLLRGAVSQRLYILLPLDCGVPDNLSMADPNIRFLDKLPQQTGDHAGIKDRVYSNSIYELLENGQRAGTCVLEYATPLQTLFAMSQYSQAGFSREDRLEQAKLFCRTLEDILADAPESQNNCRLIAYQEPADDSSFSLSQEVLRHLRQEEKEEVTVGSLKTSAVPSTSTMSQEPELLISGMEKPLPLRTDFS

## CCCn1c(NC(=O)c2cc(C)nn2CC)nc2cc(C(N)=O)cc(OCN3CCOCC3)c21
  EC50: 1 µM
